{"source": "ChEMBL document CHEMBL1201862", "about": "“PubChem BioAssay data set” (2004)", "experiment_in_all_cases": "NCI-60 cell line screen, 48 h", "key": {"BT-549": {"test_system": "BT-549"}, "CAKI-1": {"test_system": "CAKI-1"}, "HT-29": {"test_system": "HT-29"}, "MDA-MB-435": {"test_system": "MDA-MB-435"}, "RXF 393": {"test_system": "RXF 393"}, "Malme-3M": {"test_system": "Malme-3M"}, "OVCAR-8": {"test_system": "OVCAR-8"}, "Hs-578T": {"test_system": "Hs-578T"}, "UO-31": {"test_system": "UO-31"}, "SF-268": {"test_system": "SF-268"}, "786-0": {"test_system": "786-0"}, "SF-539": {"test_system": "SF-539"}, "MDA-N": {"test_system": "MDA-N"}, "MCF7": {"test_system": "MCF7"}, "TK-10": {"test_system": "TK-10"}, "SN12C": {"test_system": "SN12C"}, "OVCAR-5": {"test_system": "OVCAR-5"}, "SNB-19": {"test_system": "SNB-19"}, "COLO 205": {"test_system": "COLO 205"}, "SR": {"test_system": "SR"}, "ACHN": {"test_system": "ACHN"}, "SNB-75": {"test_system": "SNB-75"}, "NCI-H460": {"test_system": "NCI-H460"}, "HCT-15": {"test_system": "HCT-15"}, "EKVX": {"test_system": "EKVX"}, "RPMI-8226": {"test_system": "RPMI-8226"}, "HOP-62": {"test_system": "HOP-62"}, "UACC-62": {"test_system": "UACC-62"}, "K562": {"test_system": "K562"}, "A498": {"test_system": "A498"}, "NCI-H226": {"test_system": "NCI-H226"}, "LOX IMVI": {"test_system": "LOX IMVI"}, "NCI-H23": {"test_system": "NCI-H23"}, "MOLT-4": {"test_system": "MOLT-4"}, "SK-MEL-28": {"test_system": "SK-MEL-28"}, "HCT-116": {"test_system": "HCT-116"}, "MDA-MB-231": {"test_system": "MDA-MB-231"}, "SK-OV-3": {"test_system": "SK-OV-3"}, "HOP-92": {"test_system": "HOP-92"}, "T47D": {"test_system": "T47D"}, "DU-145": {"test_system": "DU-145"}, "IGROV-1": {"test_system": "IGROV-1"}, "HL-60": {"test_system": "HL-60"}, "OVCAR-4": {"test_system": "OVCAR-4"}, "OVCAR-3": {"test_system": "OVCAR-3"}, "SK-MEL-2": {"test_system": "SK-MEL-2"}, "CCRF-CEM": {"test_system": "CCRF-CEM"}, "UACC-257": {"test_system": "UACC-257"}, "PC-3": {"test_system": "PC-3"}, "NCI-H522": {"test_system": "NCI-H522"}, "NCI/ADR-RES": {"test_system": "NCI/ADR-RES"}, "M14": {"test_system": "M14"}, "KM12": {"test_system": "KM12"}, "SW-620": {"test_system": "SW-620"}, "U-251": {"test_system": "U-251"}, "SF-295": {"test_system": "SF-295"}, "SK-MEL-5": {"test_system": "SK-MEL-5"}, "A549": {"test_system": "A549"}}, "note": "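Grown in 96-well plates, cells were treated for 48 hours with each compound at five concentrations. Insufficient inhibition: endpoint recorded as highest concentration tested. Here, GI50 denotes the concentration required for 50% inhibition of growth.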 Active and inactive are the calls of the source. No stated cut-off is given here; in the data, active = GI50 up to about 1.1 µM and inactive = higher."}
{"smiles": "CN1CCN(CC(=O)N2c3ccccc3Sc3cc4ccccc4cc32)CC1", "values": [{"measurement": "GI50", "setting": "BT-549", "value": "15.1 µM (inactive)"}, {"measurement": "GI50", "setting": "CAKI-1", "value": "13.1 µM (inactive)"}, {"measurement": "GI50", "setting": "HT-29", "value": "4.31 µM (inactive)"}, {"measurement": "GI50", "setting": "MDA-MB-435", "value": "11.4 µM (inactive)"}, {"measurement": "GI50", "setting": "RXF 393", "value": "12.9 µM (inactive)"}, {"measurement": "GI50", "setting": "Malme-3M", "value": "13.6 µM (inactive)"}, {"measurement": "GI50", "setting": "OVCAR-8", "value": "17.5 µM (inactive)"}, {"measurement": "GI50", "setting": "Hs-578T", "value": "11 µM (inactive)"}, {"measurement": "GI50", "setting": "UO-31", "value": "13.2 µM (inactive)"}, {"measurement": "GI50", "setting": "SF-268", "value": "11.6 µM (inactive)"}, {"measurement": "GI50", "setting": "786-0", "value": "13.3 µM (inactive)"}, {"measurement": "GI50", "setting": "SF-539", "value": "15.6 µM (inactive)"}, {"measurement": "GI50", "setting": "MDA-N", "value": "10 µM (inactive)"}, {"measurement": "GI50", "setting": "MCF7", "value": "15.8 µM (inactive)"}, {"measurement": "GI50", "setting": "TK-10", "value": "15.7 µM (inactive)"}, {"measurement": "GI50", "setting": "SN12C", "value": "12.1 µM (inactive)"}, {"measurement": "GI50", "setting": "OVCAR-5", "value": "14.8 µM (inactive)"}, {"measurement": "GI50", "setting": "SNB-19", "value": "18.4 µM (inactive)"}, {"measurement": "GI50", "setting": "COLO 205", "value": "13.9 µM (inactive)"}, {"measurement": "GI50", "setting": "SR", "value": "13.9 µM (inactive)"}, {"measurement": "GI50", "setting": "ACHN", "value": "16.4 µM (inactive)"}, {"measurement": "GI50", "setting": "SNB-75", "value": "14.5 µM (inactive)"}, {"measurement": "GI50", "setting": "NCI-H460", "value": "16 µM (inactive)"}, {"measurement": "GI50", "setting": "HCT-15", "value": 16.7, "unit": "µM"}, {"measurement": "GI50", "setting": "EKVX", "value": "11.8 µM (inactive)"}, {"measurement": "GI50", "setting": "RPMI-8226", "value": "14.6 µM (inactive)"}, {"measurement": "GI50", "setting": "HOP-62", "value": "18.7 µM (inactive)"}, {"measurement": "GI50", "setting": "UACC-62", "value": "17.1 µM (inactive)"}, {"measurement": "GI50", "setting": "K562", "value": "15.9 µM (inactive)"}, {"measurement": "GI50", "setting": "A498", "value": "13.7 µM (inactive)"}, {"measurement": "GI50", "setting": "NCI-H226", "value": "22.7 µM (inactive)"}, {"measurement": "GI50", "setting": "LOX IMVI", "value": "15.5 µM (inactive)"}, {"measurement": "GI50", "setting": "NCI-H23", "value": "19.7 µM (inactive)"}, {"measurement": "GI50", "setting": "MOLT-4", "value": "12.2 µM (inactive)"}, {"measurement": "GI50", "setting": "SK-MEL-28", "value": "14.6 µM (inactive)"}, {"measurement": "GI50", "setting": "HCT-116", "value": "10.1 µM (inactive)"}, {"measurement": "GI50", "setting": "MDA-MB-231", "value": "14.6 µM (inactive)"}, {"measurement": "GI50", "setting": "SK-OV-3", "value": "16.1 µM (inactive)"}, {"measurement": "GI50", "setting": "HOP-92", "value": "10.6 µM (inactive)"}, {"measurement": "GI50", "setting": "T47D", "value": "19.7 µM (inactive)"}, {"measurement": "GI50", "setting": "DU-145", "value": "15.9 µM (inactive)"}, {"measurement": "GI50", "setting": "IGROV-1", "value": "16.5 µM (inactive)"}, {"measurement": "GI50", "setting": "HL-60", "value": "0.394 µM (active)"}, {"measurement": "GI50", "setting": "OVCAR-4", "value": "15.5 µM (inactive)"}, {"measurement": "GI50", "setting": "OVCAR-3", "value": "12.9 µM (inactive)"}, {"measurement": "GI50", "setting": "SK-MEL-2", "value": "17.5 µM (inactive)"}, {"measurement": "GI50", "setting": "CCRF-CEM", "value": "26 µM (inactive)"}, {"measurement": "GI50", "setting": "UACC-257", "value": "11.6 µM (inactive)"}, {"measurement": "GI50", "setting": "PC-3", "value": "14.3 µM (inactive)"}, {"measurement": "GI50", "setting": "NCI-H522", "value": "15 µM (inactive)"}, {"measurement": "GI50", "setting": "NCI/ADR-RES", "value": "16.1 µM (inactive)"}, {"measurement": "GI50", "setting": "M14", "value": "13.8 µM (inactive)"}, {"measurement": "GI50", "setting": "KM12", "value": "17 µM (inactive)"}, {"measurement": "GI50", "setting": "SW-620", "value": "20.4 µM (inactive)"}, {"measurement": "GI50", "setting": "U-251", "value": "14.3 µM (inactive)"}, {"measurement": "GI50", "setting": "SF-295", "value": "14.7 µM (inactive)"}, {"measurement": "GI50", "setting": "SK-MEL-5", "value": "17.5 µM (inactive)"}, {"measurement": "GI50", "setting": "A549", "value": "15.3 µM (inactive)"}]}
